Laboratory results taken from paper PMC7044277 (Nature Communications, 2020).
Values joined by “and” are separate entries in the source; they are usually repeats but may differ in a detail not shown here. Equal entries are not always repeated. Where two headings read alike, the source gives them in different places.

Tests used:
[1] = biological target: DRD2 (D2 long receptor) wild-type (Homo sapiens, UniProt P14416); assay: Radioligand competition binding, [3H]-N-methylspiperone, HEK293T membranes
DRD3 wild-type = DRD3 wild-type (Homo sapiens, UniProt P35462); assay: Radioligand competition binding, [3H]-N-methylspiperone
[2] = biological target: T1, DRD4 (D4.4 variant) wild-type (Homo sapiens, UniProt P21917); assay: as above; conditions: DRD4; [3H]-methylspiperone (0.8-1.0 nM); read-out: Ki
T1 sequence (P21917 1-419): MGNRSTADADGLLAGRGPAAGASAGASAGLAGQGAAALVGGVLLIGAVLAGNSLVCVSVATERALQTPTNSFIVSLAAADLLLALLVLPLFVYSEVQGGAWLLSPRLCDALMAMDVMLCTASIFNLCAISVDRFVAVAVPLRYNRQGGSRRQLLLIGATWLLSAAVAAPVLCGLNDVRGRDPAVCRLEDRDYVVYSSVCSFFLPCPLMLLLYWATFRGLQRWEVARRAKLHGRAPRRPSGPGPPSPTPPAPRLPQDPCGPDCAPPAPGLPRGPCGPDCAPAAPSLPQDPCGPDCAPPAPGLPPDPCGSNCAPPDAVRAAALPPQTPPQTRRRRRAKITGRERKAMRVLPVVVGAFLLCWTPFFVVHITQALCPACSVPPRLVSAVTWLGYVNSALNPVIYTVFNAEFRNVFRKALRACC

DRD3 F1063.28A [3] = biological target: T2, DRD3 F1063.28A (Homo sapiens, UniProt P35462, F106A); assay: biochemical; format: binding
DRD2 (D2 long receptor) [4] = biological target: T3, DRD2 (D2 long receptor) (Homo sapiens, UniProt P14416); assay: Gαi/o-mediated cAMP inhibition (GloSensor split-luciferase cAMP reporter), HEK293T; format: cell-based; conditions: for response, Fig_S11d dose-response source data: replicate values;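 for all read-outs here: compounds applied 15 min at room temperature, then luciferin plus 400 nM isoproterenol to raise cAMP through endogenous β2-adrenergic receptors, luminescence read 15 min later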
DRD4 (D4.4 variant) [5] = biological target: T4, DRD4 (D4.4 variant) (Homo sapiens, UniProt P21917); assay: Gαi/o-mediated cAMP inhibition (GloSensor); format: cell-based; conditions: DRD4; agonist, cAMP inhibition; read-out: EC50 ± SEM
T4 sequence (P21917 1-419): T1 sequence (P21917 1-419)

DRD2 F1103.28L [6] = biological target: T5, DRD2 F1103.28L (Homo sapiens, UniProt P14416, F110L); assay: Gαi/o-mediated cAMP inhibition (GloSensor), mutant; format: cell-based; conditions: DRD2 F1103.28L (b138 head prints DRD2 F1063.28L)
T5 construct: expressed in transfected cells; host or cells: HEK293T (ATCC CRL-11268)

DRD2 (D2 long receptor) [7] = biological target: T3, DRD2 (D2 long receptor); assay: β-arrestin2 recruitment (Tango), HTLA cells; format: cell-based
DRD3 = DRD3 (Homo sapiens, UniProt P35462); assay: β-arrestin2 recruitment (Tango); format: cell-based; conditions: DRD3; Tango; read-out: EC50 ± SEM
DRD4 (D4.4 variant) [8] = biological target: T4, DRD4 (D4.4 variant); assay: β-arrestin2 recruitment (Tango); format: cell-based; conditions: DRD4; Tango; read-out: EC50 ± SEM
DRD2 F1103.28L [9] = biological target: T5, DRD2 F1103.28L; assay: β-arrestin2 recruitment (Tango), mutant; format: cell-based
DRD3 F1063.28A [10] = biological target: T2, DRD3 F1063.28A; assay: cell-based; format: cell-based; conditions: DRD3 F1063.28A; Tango; read-out: EC50 ± SEM
DRD2 F1103.28A [11] = biological target: T6, DRD2 F1103.28A (Homo sapiens, UniProt P14416, F110A); format: binding; design: expressed in transfected cells; host or cells: HEK293T (ATCC CRL-11268)
DRD2 F1103.28A [12] = biological target: T6, DRD2 F1103.28A; assay: Gαi/o-mediated cAMP inhibition (GloSensor), mutant; format: cell-based; design: expressed in transfected cells; host or cells: HEK293T (ATCC CRL-11268)
DRD2 F1103.28A [13] = biological target: T6, DRD2 F1103.28A; assay: β-arrestin2 recruitment (Tango), mutant; format: cell-based; design: expressed in transfected cells; host or cells: HEK293T (ATCC CRL-11268)

T6 sequence (P14416 whole entry F110A): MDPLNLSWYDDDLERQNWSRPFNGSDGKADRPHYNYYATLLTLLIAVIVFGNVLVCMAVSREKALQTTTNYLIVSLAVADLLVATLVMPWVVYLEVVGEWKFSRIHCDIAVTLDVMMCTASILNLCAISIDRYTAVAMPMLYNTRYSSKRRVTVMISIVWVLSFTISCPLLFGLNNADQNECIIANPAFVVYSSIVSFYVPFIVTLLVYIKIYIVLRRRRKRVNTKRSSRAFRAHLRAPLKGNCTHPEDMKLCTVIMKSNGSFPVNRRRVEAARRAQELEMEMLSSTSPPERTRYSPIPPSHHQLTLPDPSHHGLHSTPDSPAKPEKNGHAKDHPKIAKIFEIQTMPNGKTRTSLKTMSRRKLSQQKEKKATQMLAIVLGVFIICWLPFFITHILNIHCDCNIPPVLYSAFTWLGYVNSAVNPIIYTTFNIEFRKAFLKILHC
T2 sequence (P35462 whole entry F106A): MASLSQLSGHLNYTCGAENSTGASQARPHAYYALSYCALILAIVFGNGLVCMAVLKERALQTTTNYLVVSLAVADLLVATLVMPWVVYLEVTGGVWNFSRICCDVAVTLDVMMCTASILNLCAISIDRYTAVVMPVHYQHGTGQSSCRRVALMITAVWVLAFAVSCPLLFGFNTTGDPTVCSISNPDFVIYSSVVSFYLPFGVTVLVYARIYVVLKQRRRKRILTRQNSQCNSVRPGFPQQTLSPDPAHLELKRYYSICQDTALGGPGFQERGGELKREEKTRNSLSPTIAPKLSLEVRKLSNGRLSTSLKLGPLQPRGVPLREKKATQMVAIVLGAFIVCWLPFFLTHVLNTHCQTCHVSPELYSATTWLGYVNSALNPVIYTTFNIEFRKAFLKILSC
T3 sequence (P14416 whole entry): as the sequence (P14416 whole entry F110A) above, with A110F counted along it
T5 sequence (P14416 whole entry F110L): as the sequence (P14416 whole entry F110A) above, with A110L counted along it
Chain of DRD2 (D2 long receptor) wild-type (P14416 whole entry): as the sequence (P14416 whole entry F110A) above, with A110F counted along it
Chain of DRD3 wild-type (P35462 whole entry): as the sequence (P35462 whole entry F106A) above, with A106F counted along it
Chain of DRD3 (P35462 whole entry): as the sequence (P35462 whole entry F106A) above, with A106F counted along it

CCOc1cccc2cc(C(C)NCC3(O)CCCC3)oc12.Cl (racemic) [O4LE5]
Ki ([1]; DRD2, [3H]-methylspiperone (0.8-1.0 nM), read-out: Ki): 9.55 µM
pKi ± SEM ([1]; DRD2 wild-type): 5.02±0.07
Ki (DRD3 wild-type; DRD3, [3H]-methylspiperone (0.8-1.0 nM), read-out: Ki): 1.02 µM
pKi ± SEM (DRD3 wild-type; DRD3 wild-type): 5.99±0.02
Ki [2]: > 10 µM
pKi ± SEM (DRD3 F1063.28A [3]; DRD3 F1063.28A): 5.37±0.13
Ki (DRD3 F1063.28A [3]; DRD3 F1063.28A, read-out: Ki): 4.27 µM
affinity decreased, mutant vs wild type (DRD3 F1063.28A [3]; DRD3 Phe106^3.28Ala vs wild-type DRD3): 4.19 fold
EC50 (DRD2 (D2 long receptor) [4]; DRD2, agonist, Gαi/o-mediated cAMP inhibition, read-out: EC50 ± SEM): 0.0203 ± 0.00906 µM
Emax relative to quinpirole response (DRD2 (D2 long receptor) [4]; DRD2, cAMP inhibition): 90.02%
response, Fig_S11d dose-response source data (DRD2 (D2 long receptor) [4]; Log[Drug] -6.52): 89.8047
response, Fig_S11d dose-response source data (DRD2 (D2 long receptor) [4]; Log[Drug] -7): 65.0385 and 57.9248 and 60.2207 and 80.9341 and 74.6312 and 79.279 and 82.9188 and 82.7948 and 77.3857
response, Fig_S11d dose-response source data (DRD2 (D2 long receptor) [4]; Log[Drug] -7.52): 39.5571 and 33.4973 and 24.3511 and 57.6284 and 63.6471 and 63.1957 and 71.0585 and 72.7209 and 64.8058
response, Fig_S11d dose-response source data (DRD2 (D2 long receptor) [4]; Log[Drug] -8): 9.5215 and 11.2717 and 13.7182 and 48.383 and 49.6202 and 44.9055 and 35.7008 and 48.9506 and 59.4463
response, Fig_S11d dose-response source data (DRD2 (D2 long receptor) [4]; Log[Drug] -8.52): -3.6708 and -0.0387 and -1.4878 and 27.1503 and 28.8723 and 39.8732 and 29.7954 and 40.3159 and 28.6789
response, Fig_S11d dose-response source data (DRD2 (D2 long receptor) [4]; Log[Drug] -9): 6.661 and 7.056 and -0.9609 and 40.0738 and 31.9486 and 25.4952 and 24.1382 and 31.3586 and 28.8029
response, Fig_S11d dose-response source data (DRD2 (D2 long receptor) [4]; Log[Drug] -9.52): 12.3068 and -0.3586 and -16.1104 and 30.2934 and 20.4294 and 33.0687 and 10.7891 and 20.7389 and 17.29
response, Fig_S11d dose-response source data (DRD2 (D2 long receptor) [4]; Log[Drug] -10): -16.468 and 1.297 and -13.024 and 16.0491 and 30.494 and 18.4566 and 11.0621 and 15.5283 and 8.9282
response, Fig_S11d dose-response source data (DRD2 (D2 long receptor) [4]; Log[Drug] -10.52): -14.0967 and 4.779 and -14.8495 and 16.7012 and 24.0741 and 20.5632 and 2.204 and 13.0967 and 9.052
response, Fig_S11d dose-response source data (DRD2 (D2 long receptor) [4]; Log[Drug] -11): -2.7111 and 12.7961 and -15.5834 and 17.8548 and 27.4178 and 14.9457 and -4.6938 and 9.499 and 12.5508
response, Fig_S11d dose-response source data (DRD2 (D2 long receptor) [4]; Log[Drug] -11.52): -7.9428 and 7.113 and -8.1498 and 19.6269 and 38.218 and 27.7856 and 20.6149 and 38.3557 and 9.623
response, Fig_S11d dose-response source data (DRD2 (D2 long receptor) [4]; Log[Drug] -12): -24.8425 and -18.4063 and -14.0215 and 7.974 and -7.6244 and -4.264 and -3.478 and -21.2934 and -10.4999
EC50 (DRD4 (D4.4 variant) [5]): > 10 µM
EC50 (DRD2 F1103.28L [6]): > 10 µM
response, Fig_S11e dose-response source data (DRD2 (D2 long receptor) [7]): 4.195 and 4.191
Emax relative to quinpirole response (DRD2 (D2 long receptor) [7]; DRD2, Tango): 69.77%
EC50 (DRD2 (D2 long receptor) [7]; DRD2, β-arrestin2 recruitment (Tango), read-out: EC50 ± SEM): 0.591 ± 0.16 µM
response, Fig_S11e dose-response source data (DRD2 (D2 long receptor) [7]; Fig_S11e, Log[Drug] -6.52, replicate values): 29.7819
response, Fig_S11e dose-response source data (DRD2 (D2 long receptor) [7]; Fig_S11e, Log[Drug] -7, replicate values): 14.8195 and 15.4716 and 11.9245 and 14.4902 and 10.6077 and 13.3375 and 15.5705 and 13.1474 and 10.3991
response, Fig_S11e dose-response source data (DRD2 (D2 long receptor) [7]; Fig_S11e, Log[Drug] -7.52, replicate values): 5.649 and 7.617 and 8.153 and 5.088 and 5.357 and 5.685 and 6.459 and 7.136 and 7.327
response, Fig_S11e dose-response source data (DRD2 (D2 long receptor) [7]; Fig_S11e, Log[Drug] -8, replicate values): 4.53 and 4.924 and 7.437 and 4.448 and 4.588 and 4.761 and 4.942 and 5.222 and 4.354
response, Fig_S11e dose-response source data (DRD2 (D2 long receptor) [7]; Fig_S11e, Log[Drug] -8.52, replicate values): 5.418 and 3.578 and 5.097 and 4.558 and 4.204 and 3.944 and 4.259 and 4.448
response, Fig_S11e dose-response source data (DRD2 (D2 long receptor) [7]; Fig_S11e, Log[Drug] -9, replicate values): 5.551 and 4.294 and 3.766 and 4.187 and 3.973 and 4.022 and 3.996 and 4.409 and 5.115
response, Fig_S11e dose-response source data (DRD2 (D2 long receptor) [7]; Fig_S11e, Log[Drug] -9.52, replicate values): 3.774 and 3.895 and 3.825 and 3.992 and 4.187 and 3.4742 and 3.994 and 4.11
response, Fig_S11e dose-response source data (DRD2 (D2 long receptor) [7]; Fig_S11e, Log[Drug] -10, replicate values): 3.543 and 4.048 and 4.417 and 4.083 and 4.005 and 3.8893 and 4.472 and 4.295 and 4.703
response, Fig_S11e dose-response source data (DRD2 (D2 long receptor) [7]; Fig_S11e, Log[Drug] -10.52, replicate values): 4.321 and 3.611 and 3.873 and 3.908 and 3.996 and 3.919 and 3.699 and 4.48 and 4.116
response, Fig_S11e dose-response source data (DRD2 (D2 long receptor) [7]; Fig_S11e, Log[Drug] -11, replicate values): 3.51 and 3.391 and 4.782 and 4.294 and 4.024 and 3.997 and 3.756 and 4.401 and 4.222
response, Fig_S11e dose-response source data (DRD2 (D2 long receptor) [7]; Fig_S11e, Log[Drug] -11.52, replicate values): 3.707 and 4 and 3.724 and 4.053 and 3.84 and 3.862 and 4.291 and 4.0833 and 3.6644
response, Fig_S11e dose-response source data (DRD2 (D2 long receptor) [7]; Fig_S11e, Log[Drug] -12, replicate values): 4.3048 and 3.879 and 4.62 and 3.975 and 4.688 and 4.168 and 3.647 and 4.316 and 4.328
EC50 (DRD3): > 10 µM
EC50 (DRD4 (D4.4 variant) [8]): > 10 µM
EC50 (DRD2 F1103.28L [9]): > 10 µM
EC50 (DRD3 F1063.28A [10]): > 10 µM
pKi ± SEM (DRD2 F1103.28A [11]; DRD2 F1103.28A): 6.03±0.14
Ki (DRD2 F1103.28A [11]; DRD2 F1103.28A, read-out: Ki): 0.93 µM
affinity increase (binding enhanced), mutant vs wild type (DRD2 F1103.28A [11]; DRD2 Phe110^3.28Ala vs wild-type DRD2): 10.27 fold
EC50 (DRD2 F1103.28A [12]): 0.05 ± 0.04 nM
Emax relative to quinpirole response (DRD2 F1103.28A [12]): 13.66%
EC50 (DRD2 F1103.28A [13]): > 10 µM
